In patent US12577206B2 (BRISTOL-MYERS SQUIBB COMPANY, priority 2020, dated 2026):

How the values were obtained:
human FPR2 = target: T1, human FPR2 (Homo sapiens, UniProt P25090); experiment: FPR2 cyclic adenosine monophosphate (cAMP) assay; assay type: cell-based; settings: CHO cells overexpressing human FPR2; forskolin 5 μM; inhibition of cAMP production; HTRF; read-out: hFPR2 cAMP2 EC50
T1 sequence (P25090 1-351): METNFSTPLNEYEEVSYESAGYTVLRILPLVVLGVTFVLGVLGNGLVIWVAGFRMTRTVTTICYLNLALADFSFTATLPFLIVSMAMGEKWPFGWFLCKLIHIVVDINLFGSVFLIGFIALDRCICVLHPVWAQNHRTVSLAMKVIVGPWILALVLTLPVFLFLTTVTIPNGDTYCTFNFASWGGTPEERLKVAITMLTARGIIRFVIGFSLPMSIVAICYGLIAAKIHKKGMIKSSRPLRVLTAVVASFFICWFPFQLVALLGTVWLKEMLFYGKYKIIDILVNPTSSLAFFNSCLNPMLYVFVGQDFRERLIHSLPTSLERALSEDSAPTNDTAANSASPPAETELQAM
Summary of the method: (§1)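 Gi-coupled activity is read as suppression of forskolin-stimulated cAMP (10 μM final for FPR1, 5 μM final for FPR2; IBMX 200 μM final) in recombinant CHO cells, 30 min incubation at rt, HTRF detection.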

human FPR1 = target: T2, human FPR1 (Homo sapiens, UniProt P21462); experiment: FPR1 cyclic adenosine monophosphate (cAMP) assay; assay type: cell-based; settings: CHO cells overexpressing human FPR1; forskolin 10 μM; inhibition of cAMP production; HTRF; read-out: hFPR1 cAMP2 EC50
T2 sequence (P21462 1-350): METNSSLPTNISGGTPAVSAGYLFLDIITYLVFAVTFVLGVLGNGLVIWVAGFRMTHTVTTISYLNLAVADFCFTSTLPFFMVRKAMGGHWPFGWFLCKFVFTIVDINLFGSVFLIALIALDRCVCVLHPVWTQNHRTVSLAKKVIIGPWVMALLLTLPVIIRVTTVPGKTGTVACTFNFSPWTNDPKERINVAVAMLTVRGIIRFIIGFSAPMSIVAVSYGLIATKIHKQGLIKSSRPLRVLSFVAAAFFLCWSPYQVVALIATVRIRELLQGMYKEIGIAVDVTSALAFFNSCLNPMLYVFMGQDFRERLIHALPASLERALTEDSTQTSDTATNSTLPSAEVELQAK
Summary of the method: as §1

| EC50 (human FPR2) | EC50 (human FPR1) | SMILES |
| --- | --- | --- |
| 8 nM | > 10000 nM | CCOc1ccc(Cl)nc1-n1c(=O)c(NC(=O)c2ccc(OC(F)F)cc2)c(-c2c(F)cc(OC)cc2F)n1C [Example 248, N-[2-(6-chloro-3-ethoxypyridin-2-yl)-5-(2,6-difluoro-4-methoxyphenyl)-1-methyl-3-oxo-2,3-dihydro-1H-pyrazol-4-yl]-4-(difluoromethoxy)benzamide] |
| 38 nM | 510 nM | Cn1c(-c2ccc(Cl)cc2)c(NC(=O)c2ccc(OC(F)F)cc2)c(=O)n1-c1ncccc1C(F)(F)F [Example 249, N-[5-(4-chlorophenyl)-1-methyl-3-oxo-2-[3-(trifluoromethyl)pyridin-2-yl]-2,3-dihydro-1H-pyrazol-4-yl]-4-(difluoromethoxy)benzamide] |
| 13 nM | 970 nM | COc1ccc(-c2c(NC(=O)c3ccc(OC(F)F)cc3)c(=O)n(-c3ncccc3C(F)(F)F)n2C)cc1 [Example 250, 4-(difluoromethoxy)-N-[5-(4-methoxyphenyl)-1-methyl-3-oxo-2-[3-(trifluoromethyl)pyridin-2-yl]-2,3-dihydro-1H-pyrazol-4-yl]benzamide] |
| 2 nM | > 10000 nM | COc1cc(F)c(-c2c(NC(=O)c3ccc(OC(F)F)cc3)c(=O)n(-c3nc(NC4CC4)ccc3C(F)(F)F)n2C)c(F)c1 [Example 251, N-{2-[6-(cyclopropylamino)-3-(trifluoromethyl)pyridin-2-yl]-5-(2,6-difluoro-4-methoxyphenyl)-1-methyl-3-oxo-2,3-dihydro-1H-pyrazol-4-yl}-4-(difluoromethoxy)benzamide] |
| 12 nM | > 10000 nM | COc1cc(F)c(-c2c(NC(=O)c3ccc(OC(F)F)cc3)c(=O)n(-c3nc(NCC(=O)N(C)C)ccc3C(F)(F)F)n2C)c(F)c1 [Example 252, N-[5-(2,6-difluoro-4-methoxyphenyl)-2-(6-{[(dimethylcarbamoyl)methyl]-amino}-3-(trifluoromethyl)pyridin-2-yl)-1-methyl-3-oxo-2,3-dihydro-1H-pyrazol-4-yl]-4-(difluoromethoxy)benzamide] |
| 5 nM | > 10000 nM | COc1cc(F)c(-c2c(NC(=O)c3ccc(OC(F)F)cc3)c(=O)n(-c3nc(NC4COC4)ccc3C(F)(F)F)n2C)c(F)c1 [Example 253, N-[5-(2,6-difluoro-4-methoxyphenyl)-1-methyl-2-{6-[(oxetan-3-yl)amino]-3-(trifluoromethyl)pyridin-2-yl}-3-oxo-2,3-dihydro-1H-pyrazol-4-yl]-4-(difluoromethoxy)benzamide] |
| 4 nM | > 10000 nM | COc1cc(F)c(-c2c(NC(=O)c3ccc(OC(F)F)cc3)c(=O)n(-c3nc(N[C@@H]4CCOC4)ccc3C(F)(F)F)n2C)c(F)c1 [Example 254, N-[5-(2,6-difluoro-4-methoxyphenyl)-1-methyl-3-oxo-2-(6-{[(3R)-oxolan-3-yl]amino}-3-(trifluoromethyl)pyridin-2-yl)-2,3-dihydro-1H-pyrazol-4-yl]-4-(difluoromethoxy)benzamide] |
| 2 nM | > 10000 nM | COc1cc(F)c(-c2c(NC(=O)c3ccc(OC(F)F)cc3)c(=O)n(-c3nc(N[C@H]4CCOC4)ccc3C(F)(F)F)n2C)c(F)c1 [Example 255] |
| 3 nM | > 10000 nM | COc1cc(F)c(-c2c(NC(=O)c3ccc(OC(F)F)cc3)c(=O)n(-c3nc(NC(C)(C)CO)ccc3C(F)(F)F)n2C)c(F)c1 [Example 256, N-[5-(2,6-difluoro-4-methoxyphenyl)-2-{6-[(1-hydroxy-2-methylpropan-2-yl)amino]-3-(trifluoromethyl)pyridin-2-yl}-1-methyl-3-oxo-2,3-dihydro-1H-pyrazol-4-yl]-4-(difluoromethoxy)benzamide] |
| 10 nM | > 10000 nM | COc1cc(F)c(-c2c(NC(=O)c3ccc(OC(F)F)cc3)c(=O)n(-c3nc(OC)ccc3C(F)(F)F)n2C)c(F)c1 [Example 257, N-[5-(2,6-difluoro-4-methoxyphenyl)-2-[6-methoxy-3-(trifluoromethyl)pyridin-2-yl]-1-methyl-3-oxo-2,3-dihydro-1H-pyrazol-4-yl]-4-(difluoromethoxy)benzamide] |
| 9 nM | > 5000 nM | COc1cc(F)c(-c2c(NC(=O)c3ccc(OC(F)F)cc3)c(=O)n(-c3nc(N4CCC[C@H]4CO)ccc3C(F)(F)F)n2C)c(F)c1 [Example 258, N-[5-(2,6-difluoro-4-methoxyphenyl)-2-{6-[(2S)-2-(hydroxymethyl)pyrrolidin-1-yl]-3-(trifluoromethyl)pyridin-2-yl}-1-methyl-3-oxo-2,3-dihydro-1H-pyrazol-4-yl]-4-(difluoromethoxy)benzamide] |
| 10 nM | > 10000 nM | COC(=O)[C@@H]1CCCN1c1ccc(C(F)(F)F)c(-n2c(=O)c(NC(=O)c3ccc(OC(F)F)cc3)c(-c3c(F)cc(OC)cc3F)n2C)n1 [Example 259, methyl (2S)-1-{6-[3-(2,6-difluoro-4-methoxyphenyl)-4-[4-(difluoromethoxy)benzamido]-2-methyl-5-oxo-2,5-dihydro-1H-pyrazol-1-yl]-5-(trifluoromethyl)pyridin-2-yl}pyrrolidine-2-carboxylate] |
| 10 nM | > 10000 nM | CNC(=O)CN(C)c1ccc(C(F)(F)F)c(-n2c(=O)c(NC(=O)c3ccc(OC(F)F)cc3)c(-c3c(F)cc(OC)cc3F)n2C)n1 [Example 260, N-[5-(2,6-difluoro-4-methoxyphenyl)-1-methyl-2-(6-{methyl[(methylcarbamoyl)methyl]amino}-3-(trifluoromethyl)pyridin-2-yl)-3-oxo-2,3-dihydro-1H-pyrazol-4-yl]-4-(difluoromethoxy)benzamide] |
| 2 nM | > 5000 nM | COc1cc(F)c(-c2c(NC(=O)c3ccc(OC(F)F)cc3)c(=O)n(-c3nc(N(C)CC(C)(C)O)ccc3C(F)(F)F)n2C)c(F)c1 [Example 261, N-[5-(2,6-difluoro-4-methoxyphenyl)-2-{6-[(2-hydroxy-2-methylpropyl)(methyl)amino]-3-(trifluoromethyl)pyridin-2-yl}-1-methyl-3-oxo-2,3-dihydro-1H-pyrazol-4-yl]-4-(difluoromethoxy)benzamide] |
| 25 nM | 2000 nM | COc1ccc(-c2c(NC(=O)c3ccc(OC(F)F)cc3)c(=O)n(-c3ncccc3Cl)n2C)c(F)c1 [Example 262, N-[2-(3-chloropyridin-2-yl)-5-(2-fluoro-4-methoxyphenyl)-1-methyl-3-oxo-2,3-dihydro-1H-pyrazol-4-yl]-4-(difluoromethoxy)benzamide] |
| 8 nM | 1700 nM | COc1ccc(-c2c(NC(=O)c3ccc(OC(F)F)cc3)c(=O)n(-c3ncccc3C(F)(F)F)n2C)c(F)c1 [Example 263, 4-(difluoromethoxy)-N-[5-(2-fluoro-4-methoxyphenyl)-1-methyl-3-oxo-2-[3-(trifluoromethyl)pyridin-2-yl]-2,3-dihydro-1H-pyrazol-4-yl]benzamide] |
| 2 nM | > 5000 nM | COc1cc(F)c(-c2c(NC(=O)c3ccc(OC(F)F)cc3)c(=O)n(-c3nc(NCC4CC4)ccc3C(F)(F)F)n2C)c(F)c1 [Example 264, N-(2-{6-[(cyclopropylmethyl)amino]-3-(trifluoromethyl)pyridin-2-yl}-5-(2,6-difluoro-4-methoxyphenyl)-1-methyl-3-oxo-2,3-dihydro-1H-pyrazol-4-yl)-4-(difluoromethoxy)benzamide] |
| 2 nM | > 10000 nM | COc1cc(F)c(-c2c(NC(=O)c3ccc(OC(F)F)cc3)c(=O)n(-c3nc(NC(C)(C)C)ccc3C(F)(F)F)n2C)c(F)c1 [Example 265, N-{2-[6-(tert-butylamino)-3-(trifluoromethyl)pyridin-2-yl]-5-(2,6-difluoro-4-methoxyphenyl)-1-methyl-3-oxo-2,3-dihydro-1H-pyrazol-4-yl}-4-(difluoromethoxy)benzamide] |
| 4 nM | > 10000 nM | COc1cc(F)c(-c2c(NC(=O)c3ccc(OC(F)F)cc3)c(=O)n(-c3nc(NC4(C)CC4)ccc3C(F)(F)F)n2C)c(F)c1 [Example 266, N-[5-(2,6-difluoro-4-methoxyphenyl)-1-methyl-2-{6-[(1-methylcyclopropyl)amino]-3-(trifluoromethyl)pyridin-2-yl}-3-oxo-2,3-dihydro-1H-pyrazol-4-yl]-4-(difluoromethoxy)benzamide] |
| 2 nM | 7100 nM | COc1cc(F)c(-c2c(NC(=O)c3ccc(OC(F)F)cc3)c(=O)n(-c3nc(N(C4CC4)C4CC4)ccc3C(F)(F)F)n2C)c(F)c1 [Example 267, N-{2-[6-(dicyclopropylamino)-3-(trifluoromethyl)pyridin-2-yl]-5-(2,6-difluoro-4-methoxyphenyl)-1-methyl-3-oxo-2,3-dihydro-1H-pyrazol-4-yl}-4-(difluoromethoxy)benzamide] |
